The source of these data is article PMC10360169 (Frontiers in Immunology, 2023).

One experiment addresses HLA-B*15:01 (Homo sapiens, UniProt P01889, A329T/A93T/A95T/C349S/D201E/D98Y/E187L/E204Q/E69M/E70A/K202T/N87E/Q94N/R155S/R180W/S121R/S35A/S48A/V306I/V36M/Y140S/Y91S). Further details: method as in ref [40]-[42] = [40]; 40 Rasmussen M Harndahl M Kristensen A Nielsen I Jorgensen K Stryhn A . Large Scale analysis of peptide - HLA-I stability . ( 2014 ). || [41]; 41 Harndahl M Lamberth K Justesen S Røder G Madsen M Nielsen M . Large Scale analysis of peptide-HLA class I interactions . ( 2007 ). || [42]; 42 Harndahl M Lamberth K Justesen S Røder G Madsen M Sylvester-Hvid C . Large Scale analysis of peptide-HLA class I interactions . ( 2006 ). As to conditions: IEDB; threshold minimum affinity of 500 nM or minimum half-life of 1 h; ref [40]-[42]; cited from earlier work.

The next experiment relates to Acar3. The class given is binding, great reed warbler Acrocephalus arundinaceus. As to conditions: for Stability T½ of Acar3 in complex with the peptide: Table S1, top 94 PSCPL-scoring peptides, SPA, 10µM peptide, 125I β2m, folding over night at 18°C, dissociation measured up to 24 hours at 37°C; for Stability T½ (h), peptide - Acar3: Table S5, half-life estimated from dissociation in scintillation proximity assay.

The subject of the next experiment is Acar19. It counts as binding, great reed warbler Acrocephalus arundinaceus. As to conditions: Table S5, half-life estimated from dissociation in scintillation proximity assay.
For the next experiment, the target named is HLA-A*24:02 (Homo sapiens, UniProt P04439, D101N/D140Y/D185E/E176V/E190D/F33S/G103R/G107R/I119L/I121M/I306V/K335N/L105A/L180Q/L300P/N151K/N90K/Q86E/Q94H/R106L/R138H/R89G/T104I/T345S/V100E/W191G/Y123F). As to conditions: below the IEDB thresholds; no reference given; cited from earlier work.
The target of another experiment is HLA-B*35:01 (Homo sapiens, UniProt P01889, A329T/A93T/A95T/C349S/D201E/D98Y/E176V/E187L/E204Q/E69T/I218V/K202T/L119I/Q94N/R155S/R180L/S121R/S35A/S48A/T118I/V127L/V306I/V36M/Y140S/Y91F). Further details: method as in ref [40]-[43] = [40]; 40 Rasmussen M Harndahl M Kristensen A Nielsen I Jorgensen K Stryhn A . Large Scale analysis of peptide - HLA-I stability . ( 2014 ). || [41]; 41 Harndahl M Lamberth K Justesen S Røder G Madsen M Nielsen M . Large Scale analysis of peptide-HLA class I interactions . ( 2007 ). || [42]; 42 Harndahl M Lamberth K Justesen S Røder G Madsen M Sylvester-Hvid C . Large Scale analysis of peptide-HLA class I interactions . ( 2006 ). || [43]; 43 Harndahl M Lamberth K Røder G Justesen S Madsen M Nielsen M . Large Scale analysis of peptide-HLA class I interactions . ( 2010 ). As to conditions: IEDB; threshold minimum affinity of 500 nM or minimum half-life of 1 h; ref [40]-[43]; cited from earlier work.

The target of the next experiment is HLA-A*32:07 (Homo sapiens, UniProt P04439, A270S/D101S/D185E/E176V/E277Q/F133L/F33S/G103R/G107R/G231S/H175R/I121M/I218V/I322F/K168Q/L105A/L300P/L318F/M331R/P208A/P217A/Q94H/R106L/R138Q/S129P/T104I/T323A/T345S/V100E/V321M/V358M). Further details: method as in ref [40], [41], [43] = [40]; 40 Rasmussen M Harndahl M Kristensen A Nielsen I Jorgensen K Stryhn A . Large Scale analysis of peptide - HLA-I stability . ( 2014 ). || [41]; 41 Harndahl M Lamberth K Justesen S Røder G Madsen M Nielsen M . Large Scale analysis of peptide-HLA class I interactions . ( 2007 ). || [43]; 43 Harndahl M Lamberth K Røder G Justesen S Madsen M Nielsen M . Large Scale analysis of peptide-HLA class I interactions . ( 2010 ). The note with it: IEDB; threshold minimum affinity of 500 nM or minimum half-life of 1 h; ref [40], [41], [43]; cited from earlier work.

The next experiment concerns the target HLA-B*58:01 (Homo sapiens, UniProt P01889, A329T/C349S/D201E/D98Y/E176V/E187L/E204Q/E69T/G107R/I218V/I90N/K202T/L105A/L119I/N104I/N87E/Q89R/Q94S/R106L/R155S/R180L/R86G/S101N/S121R/S35A/S48A/T118I/V127L/V306I/V36M/Y140S/Y91M). As to conditions: IEDB; threshold minimum affinity of 500 nM or minimum half-life of 1 h; ref [40], [41], [43]; cited from earlier work.

Another experiment has as its target HLA-A*32:15 (Homo sapiens, UniProt P04439, A270S/D101S/D185E/E176V/E277Q/E87N/F133L/G103R/G107R/G231S/H175R/I121M/I218V/I322F/K168Q/L105A/L300P/L318F/M331R/P208A/P217A/Q86R/Q94H/R106L/R138Q/S129P/T104I/T323A/T345S/V100E/V321M/V358M). Further details: method as in ref [40], [41], [43] = [40]; 40 Rasmussen M Harndahl M Kristensen A Nielsen I Jorgensen K Stryhn A . Large Scale analysis of peptide - HLA-I stability . ( 2014 ). || [41]; 41 Harndahl M Lamberth K Justesen S Røder G Madsen M Nielsen M . Large Scale analysis of peptide-HLA class I interactions . ( 2007 ). || [43]; 43 Harndahl M Lamberth K Røder G Justesen S Madsen M Nielsen M . Large Scale analysis of peptide-HLA class I interactions . ( 2010 ). The note with it: IEDB; threshold minimum affinity of 500 nM or minimum half-life of 1 h; ref [40], [41], [43]; cited from earlier work.

The target of the next experiment is HLA-A*68:23 (Homo sapiens, UniProt P04439, A269V/D185E/E176V/E277Q/E87N/F33Y/G231S/I121R/I166T/I218V/L180W/L300P/L318F/N151K/P208A/P217A/Q86R/R169H/T345S). Further details: method as in ref [40], [41], [43] = [40]; 40 Rasmussen M Harndahl M Kristensen A Nielsen I Jorgensen K Stryhn A . Large Scale analysis of peptide - HLA-I stability . ( 2014 ). || [41]; 41 Harndahl M Lamberth K Justesen S Røder G Madsen M Nielsen M . Large Scale analysis of peptide-HLA class I interactions . ( 2007 ). || [43]; 43 Harndahl M Lamberth K Røder G Justesen S Madsen M Nielsen M . Large Scale analysis of peptide-HLA class I interactions . ( 2010 ). As to conditions: IEDB; threshold minimum affinity of 500 nM or minimum half-life of 1 h; ref [40], [41], [43]; cited from earlier work.

In the case of AMSAQAAAF [P1], at HLA-B*15:01, the “binding to HLA-B*15:01” value was “binds”. Besides, in the experiment with Acar3, the “Stability T½ of Acar3 in complex with the peptide” value (shortened to “Stability T½ of Acar3 in complex”) is 11.3 h and the “Stability T½ (h), peptide - Acar3” value is on record as 11.3 h.
Turning to DYQGLPLEF [9-mer peptide], in the experiment with Acar19, the “Stability T½ (h), peptide - Acar19” value is recorded as 3.5 h. In addition, in the experiment with Acar3, the “Stability T½ of Acar3 in complex” value amounted to 0.2 h and the “Stability T½ (h), peptide - Acar3” value is reported as 0.2 h.
Take MTMITPPTF [P3]: on HLA-A*24:02, the “binding to HLA-A*24:02” value was “weak binding”. For the same sequence, the “binding to HLA-B*35:01” value on HLA-B*35:01 is given as “binding partners”. For the same sequence, the “binding to HLA-A*32:07” value on HLA-A*32:07 was “binding partners”. In addition, the “binding to HLA-B*58:01” value at HLA-B*58:01 is “binding partners”. For the same sequence, in the experiment on Acar3, the “Stability T½ of Acar3 in complex” value is 10.3 h and the “Stability T½ (h), peptide - Acar3” value is recorded as 10.3 h. Also, the “binding to HLA-A*32:15” value at HLA-A*32:15 is reported as “binding partners”. Moreover, the “binding to HLA-A*68:23” value on HLA-A*68:23 is “binding partners”.
Turning to TRAPAPFPL [9-mer peptide], in the experiment with Acar19, the “Stability T½ (h), peptide - Acar19” value is given as 0.1 h. Also, the “Stability T½ (h), peptide - Acar3” value with Acar3 is recorded as 0.1 h.
On to TYSPALNKM [9-mer peptide], for which the “Stability T½ (h), peptide - Acar19” value in the experiment on Acar19 is given as 0.1 h.
As to VMKRNFIDF [9-mer peptide], the “Stability T½ (h), peptide - Acar19” value with Acar19 is 0.1 h.
Take VQHNIKHSF [9-mer peptide]: in the experiment on Acar19, the “Stability T½ (h), peptide - Acar19” value was 0.1 h.
As to VSFSMVGLF [9-mer peptide], the “Stability T½ (h), peptide - Acar19” value in the experiment with Acar19 was 0.1 h.
As for VTNRHEEKF [9-mer peptide], the “Stability T½ (h), peptide - Acar19” value with Acar19 is 0.1 h.
For WFGHLASDW [9-mer peptide], the “Stability T½ (h), peptide - Acar19” value with Acar19 is given as 0.1 h.
Same read-out and setting: next, WYAPVALLF [9-mer peptide]: 0.2 h; YFDPANGKF [9-mer peptide]: 0.1 h.
As to YISPIFIPM [9-mer peptide], in the experiment on Acar19, the “Stability T½ (h), peptide - Acar19” value is given as 0.1 h.
Still for that read-out and setting: in the case of YNAELLVAL [9-mer peptide] it was 0.2 h.
The same measure, in the same setting: in the case of YQAGISAAL [9-mer peptide] it was 0.2 h.
Same read-out and setting: in the case of YRSMIAFKL [9-mer peptide] it was 0.1 h; in that of YTMELCGAM [9-mer peptide], 0.1 h.
For YTYPIAHTA [9-mer peptide], the “Stability T½ (h), peptide - Acar19” value with Acar19 is 0.1 h.
Consider YYNAFHWAI [9-mer peptide], for which the “Stability T½ (h), peptide - Acar19” value with Acar19 is reported as 0.4 h.
Turning to YYNAFQWAI [9-mer peptide], the “Stability T½ (h), peptide - Acar19” value in the experiment on Acar19 is reported as 0.4 h.
In the case of YYSNKVFPI [9-mer peptide], the “Stability T½ (h), peptide - Acar19” value with Acar19 is 0.2 h.
